Data on 39 molecules can be found in ChEMBL document CHEMBL4483862, “Open-source discovery of chemical leads for next-generation chemoprotective antimalarials” (2018).

SMILES strings stand for the structures.

The subject of the assay is Plasmodium berghei. Briefly: Luciferase/luciferin-expressing antifolate-resistant parasites were used to infect a culture of HepG2 cells that were pre-incubated with compounds. Infected hepatocytes emit light due to the luciferase reaction. Assay results are presented as the percent inhibition of light emission compared to control. […]. The format is functional. The conditions noted are these: sporozoite; for IC90: read-out: LUCIFERASE INFECTION ASSAY - IC90.

[1] abbreviates: read-out: LUCIFERASE INFECTION ASSAY - IC50.

In general, IC50 refers to the point on the concentration scale where inhibition reaches its midpoint. What is called IC90 is the point of the concentration-response curve where the effect stands at 90%.

Turning to `CSc1nc2nc(C)c(CCC(=O)N(CC(F)(F)F)C(C)C3CC3)c(C)n2n1` (stereo not drawn), the IC90 is 1.24 µM. In addition, the half-inhibitory concentration (IC50) under setting [1] came out at 0.994 µM.
Regarding `c1ccc(CN2CCOCC2)c(CNc2ncnc3sccc23)c1`, the concentration for an effect of 90% (IC90) was > 10 µM. In addition, for the setting “HEPG2TOX_HILL_SLOPE 7.26, HEPG2TOX_R_SQUARED 0.756, read-out: LUCIFERASE INFECTION ASSAY - IC50”, the IC50 is > 10 µM.
For the molecule `O=C(On1c(-c2ccccc2)nc2ccccc2c1=O)c1ccc(F)cc1`, the 90% effect concentration (IC90) is > 9.16 µM. Further, the IC50 under setting [1] is > 9.16 µM.
As for `O=C(NC1CCN(c2nccc(C(F)(F)F)n2)CC1)c1ccco1`, the IC90 is > 9.7 µM. In addition, the IC50 (PBLUC_HILL_SLOPE 0.897, PBLUC_R_SQUARED 0.83, read-out: LUCIFERASE INFECTION ASSAY - IC50) was 2.6 µM.
Consider `O=C(Cn1cnc2sccc2c1=O)c1ccc(C2CCCCC2)cc1`, for which the IC90 was > 10 µM. Under “HEPG2TOX_HILL_SLOPE 0.627, HEPG2TOX_R_SQUARED 0.608, PBLUC_HILL_SLOPE 1.31, PBLUC_R_SQUARED 0.795, read-out: LUCIFERASE INFECTION ASSAY - IC50”, the half-maximal inhibitory concentration (IC50) amounted to 2.58 µM.
For the molecule `Cc1oc2c(c1C(=O)N1CCN(CCO)CC1)C(=O)c1ccccc1C2=O`, the IC90 was > 10 µM. Besides, the IC50 (HEPG2TOX_HILL_SLOPE 0.333, HEPG2TOX_R_SQUARED 0.261, PBLUC_HILL_SLOPE 0.243, PBLUC_R_SQUARED 0.141, read-out: LUCIFERASE INFECTION ASSAY - IC50) was found to be 8.15 µM.
Turning to `CCOC(=O)c1cc(C#N)c(Sc2n[nH]c(=O)n2C(C)C)nc1C(F)(F)F`, the IC90 was > 8.22 µM. Besides, the half-maximal inhibitory concentration (IC50) (HEPG2TOX_HILL_SLOPE 15.1, HEPG2TOX_R_SQUARED 0.842, PBLUC_HILL_SLOPE 4.42, PBLUC_R_SQUARED 0.232, read-out: LUCIFERASE INFECTION ASSAY - IC50) is 5.41 µM.
For the molecule `Cc1nn(-c2ccccc2)c2c1C(c1c[nH]c3ccccc13)N1C(=N2)C(N2CCN(c3ccc(F)cc3)CC2)=Nc2ccccc21` (stereo not drawn), the IC90 is > 10 µM. Further, the IC50 under setting [1] was > 10 µM.
On to `O=C(c1cccc(C(F)(F)F)c1)N1CCc2c([nH]c3ccccc23)C1C(F)(F)F` (stereo not drawn), for which the 90% effect concentration (IC90) was > 8 µM. Further, the IC50 (FFLUC_HILL_SLOPE 6.83, FFLUC_R_SQUARED 0.392, HEPG2TOX_HILL_SLOPE 7.06, HEPG2TOX_R_SQUARED 0.861, PBLUC_HILL_SLOPE 3.46, PBLUC_R_SQUARED 0.38, read-out: LUCIFERASE INFECTION ASSAY - IC50) was determined as 4.59 µM.
As to `O=C(CCc1nc(=O)c2ccccc2[nH]1)OC(C(=O)c1c[nH]c2ccccc12)c1ccccc1` (stereo not drawn), the IC90 is > 10 µM. For the same molecule, the IC50 under setting [1] is > 10 µM.
On to `Cc1nc2cc(NC(C)C(=O)Nc3ccc([N+](=O)[O-])cc3Cl)ccc2o1` (stereo not drawn), for which the IC90 is > 10 µM. Further, under setting [1], the half-inhibitory concentration (IC50) was > 10 µM.
Take `Cc1ccc(NN2C(=O)C=C(c3ccccc3)C2=O)cc1`: the concentration for an effect of 90% (IC90) was > 11.9 µM. For the setting “HEPG2TOX_HILL_SLOPE 1.4, HEPG2TOX_R_SQUARED 0.882, PBLUC_HILL_SLOPE 17, PBLUC_R_SQUARED 0.623, read-out: LUCIFERASE INFECTION ASSAY - IC50”, the IC50 worked out at 11.2 µM.
As for `CNc1nc2cnc(-c3cccc(Oc4ccccc4)c3)cc2n1Cc1cccnc1`, the 90% effect concentration (IC90) is > 10 µM. Further, the half-maximal inhibitory concentration (IC50) under setting [1] is > 10 µM.
As to `CC(C)Cn1c(N)c(C(=O)COC(=O)c2cc(-c3cccs3)nc3ccccc23)c(=O)n(C)c1=O`, the IC90 amounted to 3.23 µM. The IC50 (FFLUC_HILL_SLOPE 33.5, FFLUC_R_SQUARED 0.479, PBLUC_HILL_SLOPE 4.72, PBLUC_R_SQUARED 0.427, read-out: LUCIFERASE INFECTION ASSAY - IC50) turned out to be 2.03 µM.
`O=C(CC12CC3CC(CC(C3)C1)C2)NN=CC1C(=O)N(Cc2ccccc2)C(=O)c2ccccc21` (stereo not drawn): the concentration for an effect of 90% (IC90) was > 10 µM. Further, under setting [1], the 50% inhibitory concentration (IC50) is > 10 µM.
`COc1ccc(CCn2nc(C(=O)NC3CC3)c3c2CCN(C(=O)c2cc4cc(C)ccc4[nH]2)C3)cc1`: the IC90 is > 6.63 µM. The IC50 (FFLUC_HILL_SLOPE 11.9, FFLUC_R_SQUARED 0.277, PBLUC_HILL_SLOPE 2.4, PBLUC_R_SQUARED 0.763, read-out: LUCIFERASE INFECTION ASSAY - IC50) came to 2.8 µM.
On to `O=C(Cc1ccc(-c2ccccc2)cc1)Nc1nc(-c2ccccn2)cs1`, for which the 90% effect concentration (IC90) is > 10 µM. Also, the IC50 (PBLUC_HILL_SLOPE 13.5, PBLUC_R_SQUARED 0.18, read-out: LUCIFERASE INFECTION ASSAY - IC50) came to 9.2 µM.
Turning to `O=C(Nc1nc(CN2CCOCC2)cs1)c1ccccc1Nc1ccccc1`, the IC90 was > 10 µM. For the same molecule, the half-maximal inhibitory concentration (IC50) under setting [1] is > 10 µM.
Consider `CC(C)n1ncc2c(C(=O)NCCCn3ccc4ccccc43)cc(C3CC3)nc21`, for which the concentration for an effect of 90% (IC90) is > 10 µM. Besides, the half-maximal inhibitory concentration (IC50) under setting [1] is > 10 µM.
`CC1=C(C(=O)OC2CCCCC2)C(c2ccccc2Br)CC(=O)N1` (stereo not drawn): the IC90 was > 8.41 µM. The IC50 (PBLUC_HILL_SLOPE 15.2, PBLUC_R_SQUARED 0.697, read-out: LUCIFERASE INFECTION ASSAY - IC50) is 7.66 µM.
For `CCOC(=O)CC(=O)CSc1nnc(-c2ccccc2Cl)n1-c1ccccc1F`, the IC90 was 0.0166 µM. In addition, the 50% inhibitory concentration (IC50) (PBLUC_HILL_SLOPE 12.3, PBLUC_R_SQUARED 0.795, read-out: LUCIFERASE INFECTION ASSAY - IC50) was 0.0139 µM.
For the molecule `CC(Sc1nnc(-c2cccs2)n1C(C)C1CC2CCC1C2)C(=O)N1CCCc2ccccc21` (stereo not drawn), the 90% effect concentration (IC90) was > 10 µM. The IC50 (FFLUC_HILL_SLOPE 9.01, FFLUC_R_SQUARED 0.23, read-out: LUCIFERASE INFECTION ASSAY - IC50) was > 10 µM.
In the case of `CC(C)(C)c1ccc(C(=O)NCCOc2ccccc2F)cc1`, the IC90 was 0.642 µM. The IC50 (FFLUC_HILL_SLOPE 1.22, FFLUC_R_SQUARED 0.498, PBLUC_HILL_SLOPE 0.635, PBLUC_R_SQUARED 0.572, read-out: LUCIFERASE INFECTION ASSAY - IC50) stood at 0.0201 µM.
Take `O=C1/C(=C/c2ccc(SC(F)(F)F)cc2)SC(=S)N1CCN1CCOCC1`: the 90% effect concentration (IC90) was > 10 µM. For the same molecule, under setting [1], the 50% inhibitory concentration (IC50) is > 10 µM.
For the molecule `Cc1nn(Cc2nnc(SCC(=O)c3ccc(Cl)cc3)n2C)c(C)c1[N+](=O)[O-]`, the IC90 was > 7.84 µM. Also, the IC50 under setting [1] is > 7.84 µM.
Turning to `O=C1/C(=C\c2ccncc2)C(c2ccccc2)Oc2ccccc21` (stereo not drawn), the IC90 turned out to be 9.96 µM. For the same molecule, the half-inhibitory concentration (IC50) under setting [1] is 9.06 µM.
With `C(=C\c1nc2ccccc2s1)/c1ccc(CN2CCCCC2)cc1`, the IC90 was 2.91 µM. The concentration for half-maximal inhibition (IC50) (PBLUC_HILL_SLOPE 1.51, PBLUC_R_SQUARED 0.817, read-out: LUCIFERASE INFECTION ASSAY - IC50) is 0.679 µM.
As to `O=C(N/N=C(\Cc1ncc[nH]1)c1ccccc1)c1cccs1`, the IC90 was found to be 4.17 µM. In addition, the IC50 (HEPG2TOX_HILL_SLOPE 1.23, HEPG2TOX_R_SQUARED 0.975, PBLUC_HILL_SLOPE 4.09, PBLUC_R_SQUARED 0.691, read-out: LUCIFERASE INFECTION ASSAY - IC50) is 2.44 µM.
With `Cc1oc(C(C)(C)C)cc1C(=O)Nc1ccc([N+](=O)[O-])cc1`, the IC90 is > 10.9 µM. The IC50 under setting [1] is > 10.9 µM.
Regarding `Cc1c(S(=O)(=O)c2ccc(Cl)cc2)csc1C(=O)Nc1ccccc1Cl`, the IC90 is > 7.74 µM. Besides, the IC50 (FFLUC_HILL_SLOPE 0.988, FFLUC_R_SQUARED 0.0286, PBLUC_HILL_SLOPE 1.65, PBLUC_R_SQUARED 0.324, read-out: LUCIFERASE INFECTION ASSAY - IC50) turned out to be 6.99 µM.
Take `N#Cc1c(N2CCCC2)nn(C(=O)Nc2ccc(Cl)c(Cl)c2)c1N`: the IC90 stood at 3.89 µM. Besides, under “PBLUC_HILL_SLOPE 16.1, PBLUC_R_SQUARED 0.491, read-out: LUCIFERASE INFECTION ASSAY - IC50”, the IC50 came to 3.39 µM.
`OCc1ccc(-c2cn3c(-c4ccc5c(c4)OCO5)cnc3cn2)cc1`: the IC90 was > 9.56 µM. Further, the IC50 (PBLUC_HILL_SLOPE 1.17, PBLUC_R_SQUARED 0.649, read-out: LUCIFERASE INFECTION ASSAY - IC50) came out at 3.91 µM.
For `S=C(NCCc1csc2ccccc12)Nc1ccc(Cl)cc1`, the 90% effect concentration (IC90) is > 9.51 µM. For the same molecule, the 50% inhibitory concentration (IC50) (PBLUC_HILL_SLOPE 1.56, PBLUC_R_SQUARED 0.124, read-out: LUCIFERASE INFECTION ASSAY - IC50) was > 9.51 µM.
As to `CCOc1ccc(S(=O)(=O)Nc2cc3c(C(=O)OC(C)C)c(C)oc3c3ccccc23)cc1`, the IC90 is 2.86 µM. For the same molecule, the IC50 (HEPG2TOX_HILL_SLOPE 2.94, HEPG2TOX_R_SQUARED 0.937, PBLUC_HILL_SLOPE 3.2, PBLUC_R_SQUARED 0.642, read-out: LUCIFERASE INFECTION ASSAY - IC50) stood at 1.44 µM.
On to `O=C(CN1c2cccc3cccc(c23)S1(=O)=O)Nc1ccc(-c2nc3ccccc3[nH]2)cc1`, for which the 90% effect concentration (IC90) was > 10 µM. The IC50 under setting [1] was > 10 µM.
As for `COc1ccc2c(c1)c(CC(=O)Nc1cccc(S(=O)(=O)N3CCCC3)c1)c(C)n2C(=O)c1ccc(Cl)cc1`, the IC90 is > 10 µM. The IC50 (FFLUC_HILL_SLOPE 4.55, FFLUC_R_SQUARED 0.0972, read-out: LUCIFERASE INFECTION ASSAY - IC50) was > 10 µM.
Regarding `CC(=O)Nc1ccc(Sc2ccnc3cc(Cl)ccc23)cc1`, the 90% effect concentration (IC90) was determined as 3.98 µM. Besides, the IC50 (FFLUC_HILL_SLOPE 2.92, FFLUC_R_SQUARED 0.4, PBLUC_HILL_SLOPE 11.7, PBLUC_R_SQUARED 0.574, read-out: LUCIFERASE INFECTION ASSAY - IC50) amounted to 3.29 µM.
In the case of `c1ccc2cc(-c3cnc4sc(NCc5ccncc5)nn34)ccc2c1`, the IC90 is > 9.23 µM. In addition, under setting [1], the half-maximal inhibitory concentration (IC50) is > 9.23 µM.
With `CCCCc1nc2ccccc2n1CC(=O)Nc1cc(S(=O)(=O)N(C)C)ccc1OC`, the IC90 is > 10 µM. Further, the IC50 (HEPG2TOX_HILL_SLOPE 7.99, HEPG2TOX_R_SQUARED 0.0779, PBLUC_HILL_SLOPE 2.22, PBLUC_R_SQUARED 0.125, read-out: LUCIFERASE INFECTION ASSAY - IC50) was > 10 µM.
